Active and inactive are the calls of the source. Some results are limits rather than exact numbers.

Experimental findings from ChEMBL document CHEMBL1201862, “PubChem BioAssay data set” (2004) are described below.

Targets include Focal adhesion kinase 1 (Homo sapiens, UniProt Q05397); Aurora kinase B (Homo sapiens, UniProt Q96GD4); Aurora kinase A (Homo sapiens, UniProt O14965).
What all share (format): functional
The target in assay [1] is Tyrosine-protein kinase receptor TYRO3 (Homo sapiens, UniProt Q06418).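 Note: TYRO3 value obtained as one member of a kinome-wide profiling panel.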
The target of assay [2] is Serine/threonine-protein kinase Nek2 (Homo sapiens, UniProt P51955).
Serine/threonine-protein kinase Nek2, sequence (P51955 whole entry): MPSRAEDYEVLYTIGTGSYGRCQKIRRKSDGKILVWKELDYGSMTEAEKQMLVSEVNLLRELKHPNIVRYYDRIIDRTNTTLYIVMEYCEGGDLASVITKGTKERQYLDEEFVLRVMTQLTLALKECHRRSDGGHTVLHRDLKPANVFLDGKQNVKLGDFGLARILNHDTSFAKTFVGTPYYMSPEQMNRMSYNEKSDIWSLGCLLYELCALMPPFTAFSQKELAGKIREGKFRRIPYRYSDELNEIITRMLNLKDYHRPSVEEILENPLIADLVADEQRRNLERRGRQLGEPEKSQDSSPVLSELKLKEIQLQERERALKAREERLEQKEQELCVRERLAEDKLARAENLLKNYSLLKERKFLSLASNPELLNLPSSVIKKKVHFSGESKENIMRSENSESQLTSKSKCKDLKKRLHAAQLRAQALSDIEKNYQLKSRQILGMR
Assay [3] addresses Cyclin-dependent kinase 5 (Homo sapiens, UniProt Q00535).
Assay [4] has as its target Hepatocyte growth factor receptor (Homo sapiens, UniProt P08581).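 Note: kinase panel profiling across the kinome, with MET as the panel member.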
In assay [5] the target is Serine/threonine-protein kinase Chk1 (Homo sapiens, UniProt O14757).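 Note: measured as one member of a kinome-wide kinase profiling panel.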
Assay [6] has as its target cAMP-dependent protein kinase catalytic subunit PRKX (Homo sapiens, UniProt P51817).
The next assay deals with LIM domain kinase 1 (Homo sapiens, UniProt P53667). In words: Navigating the Kinome. Panel member name: LIMK1.
In assay [7] the target is Cyclin-dependent kinase 7 (Homo sapiens, UniProt P50613).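 Note: value comes from a kinome-wide kinase profiling panel in which CDK7 is one member.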
Assay [8] has as its target Leucine-rich repeat serine/threonine-protein kinase 2 (Homo sapiens, UniProt Q5S007).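 Note: value from a broad kinome-wide panel profiling study in which LRRK2 was one of the kinases tested.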
Assay [9] concerns the target Dual specificity protein kinase CLK4 (Homo sapiens, UniProt Q9HAZ1).
The target in assay [10] is Macrophage colony-stimulating factor 1 receptor (Homo sapiens, UniProt P07333).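 Note: value comes from the Navigating the Kinome screening panel, CSF1R member.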
Macrophage colony-stimulating factor 1 receptor, sequence (P07333 whole entry): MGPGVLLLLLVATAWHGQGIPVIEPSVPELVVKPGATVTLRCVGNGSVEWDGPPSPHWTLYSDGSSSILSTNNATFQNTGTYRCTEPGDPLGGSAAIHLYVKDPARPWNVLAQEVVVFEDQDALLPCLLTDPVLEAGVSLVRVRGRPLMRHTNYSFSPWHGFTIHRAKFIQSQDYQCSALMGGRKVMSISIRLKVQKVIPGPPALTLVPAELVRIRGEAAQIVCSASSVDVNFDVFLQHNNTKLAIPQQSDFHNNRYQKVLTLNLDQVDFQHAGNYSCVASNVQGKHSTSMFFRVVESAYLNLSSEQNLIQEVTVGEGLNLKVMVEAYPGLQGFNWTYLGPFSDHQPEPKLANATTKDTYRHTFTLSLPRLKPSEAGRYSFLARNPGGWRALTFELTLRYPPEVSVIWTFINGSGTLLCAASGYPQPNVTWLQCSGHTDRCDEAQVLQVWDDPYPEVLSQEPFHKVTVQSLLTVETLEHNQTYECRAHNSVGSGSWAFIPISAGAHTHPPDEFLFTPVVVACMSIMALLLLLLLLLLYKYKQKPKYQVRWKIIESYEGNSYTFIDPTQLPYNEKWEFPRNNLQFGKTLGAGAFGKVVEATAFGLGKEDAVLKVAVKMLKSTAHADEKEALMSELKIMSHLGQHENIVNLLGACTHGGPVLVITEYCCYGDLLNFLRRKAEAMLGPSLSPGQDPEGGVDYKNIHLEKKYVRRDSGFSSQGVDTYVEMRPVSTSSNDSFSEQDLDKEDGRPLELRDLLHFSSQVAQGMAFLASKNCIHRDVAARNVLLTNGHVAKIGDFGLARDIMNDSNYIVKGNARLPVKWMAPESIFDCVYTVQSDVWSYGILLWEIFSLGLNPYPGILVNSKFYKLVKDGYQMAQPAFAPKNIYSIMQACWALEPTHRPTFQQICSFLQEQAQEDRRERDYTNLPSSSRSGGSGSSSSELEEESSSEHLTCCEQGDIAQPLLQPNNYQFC
Assay [11] concerns the target Inhibitor of nuclear factor kappa-B kinase subunit epsilon (Homo sapiens, UniProt Q14164). In words: Navigating the Kinome. Panel member name: IKBKE.
In assay [12] the target is Calcium/calmodulin-dependent protein kinase type II subunit alpha (Homo sapiens, UniProt Q9UQM7). In words: Navigating the Kinome. Panel member name: CAMK2A.
In assay [13] the target is Casein kinase I isoform alpha (Homo sapiens, UniProt P48729).
Casein kinase I isoform alpha, sequence (P48729 whole entry, canonical isoform): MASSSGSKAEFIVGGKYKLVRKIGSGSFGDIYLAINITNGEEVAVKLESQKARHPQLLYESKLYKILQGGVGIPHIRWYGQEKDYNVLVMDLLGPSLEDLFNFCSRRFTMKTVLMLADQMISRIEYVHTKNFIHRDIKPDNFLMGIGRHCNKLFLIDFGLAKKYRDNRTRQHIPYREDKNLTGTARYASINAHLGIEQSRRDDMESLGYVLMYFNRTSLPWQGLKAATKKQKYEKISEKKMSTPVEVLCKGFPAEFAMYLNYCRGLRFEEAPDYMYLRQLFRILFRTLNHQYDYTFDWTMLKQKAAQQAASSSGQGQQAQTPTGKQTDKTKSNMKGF
For assay [14], the target named is Cyclin-dependent kinase 8 (Homo sapiens, UniProt P49336). In words: Navigating the Kinome. Panel member name: CDK8.
Assay [15] addresses Platelet-derived growth factor receptor beta (Homo sapiens, UniProt P09619).
In assay [16] the target is Protein kinase C theta type (Homo sapiens, UniProt Q04759). In words: Navigating the Kinome. Panel member name: PRKCQ.
Protein kinase C theta type, sequence (Q04759 whole entry): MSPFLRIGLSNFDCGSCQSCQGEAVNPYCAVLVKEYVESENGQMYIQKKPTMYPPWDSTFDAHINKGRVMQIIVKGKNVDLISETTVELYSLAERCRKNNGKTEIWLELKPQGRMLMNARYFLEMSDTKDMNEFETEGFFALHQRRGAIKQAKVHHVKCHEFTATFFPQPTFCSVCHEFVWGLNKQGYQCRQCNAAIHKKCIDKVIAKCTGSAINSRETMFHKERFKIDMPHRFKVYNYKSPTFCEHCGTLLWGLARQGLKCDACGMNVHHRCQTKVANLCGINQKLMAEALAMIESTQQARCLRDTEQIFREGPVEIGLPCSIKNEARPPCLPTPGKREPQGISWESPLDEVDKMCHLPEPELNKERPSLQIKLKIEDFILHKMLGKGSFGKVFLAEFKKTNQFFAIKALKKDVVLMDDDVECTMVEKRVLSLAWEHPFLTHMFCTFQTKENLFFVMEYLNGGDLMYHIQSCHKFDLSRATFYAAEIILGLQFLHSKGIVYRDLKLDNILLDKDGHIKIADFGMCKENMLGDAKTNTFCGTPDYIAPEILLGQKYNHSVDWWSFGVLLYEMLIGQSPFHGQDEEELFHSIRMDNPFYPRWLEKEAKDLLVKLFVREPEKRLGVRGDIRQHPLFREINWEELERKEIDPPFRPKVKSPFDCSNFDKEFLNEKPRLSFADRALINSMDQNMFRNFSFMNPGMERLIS
The target in assay [17] is Proto-oncogene tyrosine-protein kinase receptor Ret (Homo sapiens, UniProt P07949).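 Note: measured within a kinome-wide profiling panel, RET as the panel member.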
The target in assay [18] is G protein-coupled receptor kinase 5 (Homo sapiens, UniProt P34947). In words: Navigating the Kinome. Panel member name: GPRK5.
The target of assay [19] is Death-associated protein kinase 3 (Homo sapiens, UniProt O43293).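 Note: measured as one member of a kinome-wide profiling panel.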
Assay [20] concerns the target Dual specificity tyrosine-phosphorylation-regulated kinase 1B (Homo sapiens, UniProt Q9Y463). In words: Navigating the Kinome. Panel member name: DYRK1B.
For assay [21], the target named is Serine/threonine-protein kinase D3 (Homo sapiens, UniProt O94806).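 Note: determined within a kinase panel screen, with PRKCN as the panel member.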
Assay [22] addresses Dual specificity tyrosine-phosphorylation-regulated kinase 1A (Homo sapiens, UniProt Q13627).
Assay [23] deals with Tyrosine-protein kinase ABL1 (Homo sapiens, UniProt P00519).
The target in assay [24] is Leukocyte tyrosine kinase receptor (Homo sapiens, UniProt P29376). In words: Navigating the Kinome. Panel member name: LTK.
For assay [25], the target named is Mitogen-activated protein kinase kinase kinase kinase 2 (Homo sapiens, UniProt Q12851).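 Note: measured as one member of a kinome-wide kinase panel, with MAP4K2 as the panel entry.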
In assay [26] the target is cAMP-dependent protein kinase catalytic subunit alpha (Homo sapiens, UniProt P17612).
Assay [27] has as its target Vascular endothelial growth factor receptor 2 (Homo sapiens, UniProt P35968).
The next assay has as its target Lethal factor (Bacillus anthracis, UniProt P15917). In words: High-throughput multiplex microsphere dose response for inhibitors of toxin protease, specifically Lethal Factor protease, compounds from Cherry Pick 02. The conditions noted are these: read-out: EC50_MICROM.
For assay [28], the target named is Botulinum neurotoxin type F (Clostridium botulinum, UniProt P30996). In words: High-throughput multiplex microsphere dose response for inhibitors of toxin protease, specifically Botulinum neurotoxin light chain F protease, compounds from Cherry Pick 02. The conditions noted are these: read-out: EC50_MICROM.
Assay [29] addresses T1, Botulinum neurotoxin type A (Clostridium botulinum (strain Hall / ATCC 3502 / NCTC 13319 / Type A), UniProt P0DPI1). In words: High-throughput multiplex microsphere dose response for inhibitors of toxin protease, specifically Botulinum neurotoxin light chain A protease, compounds from Cherry Pick 01. The conditions noted are these: read-out: EC50_MICROM.
Assay [30] deals with T1, Botulinum neurotoxin type A. In words: High-throughput multiplex microsphere dose response for inhibitors of toxin protease, specifically Botulinum neurotoxin light chain A protease, compounds from Cherry Pick 02. The following applies: read-out: EC50_MICROM.
Assay [31] can be described thus: microbe, parasite or virus in culture. The conditions noted are these: Mycobacterium tuberculosis.
Assay [32] addresses T2, Small ubiquitin-related modifier 1 (Homo sapiens, UniProt P63165). In words: SUMO1 protein-protein binding blockers, potency – biochemical, FRET, dose response (AID 624383). The following applies: read-out: IC50_Mean.
Another assay concerns the target Prothrombin (Bos taurus, UniProt P00735). In words: thrombin protease inhibitors – biochemical, fluorescence polarization, uHTS hits, dose response (AID 602369). On the technique in general: Polarisation of emitted light reports the rotation of a fluorescent probe.
The subject of another assay is INS1. In words: INS-1E survival protection against cytokine death – cell-based, luminescence, retest, dose response (AID 449756).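 Note: cell death triggered by IL-1 beta plus TNF-alpha plus IFN-gamma mixture; protective hits raise ATP signal compared with cytokine alone wells.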 The following applies: Rattus norvegicus.
In the next assay the target is T3, Bcl-2-related protein A1 (Mus musculus, UniProt Q07440).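 Note: confirmatory dose–response counterscreen on Bfl-1, used to check hits from a UBC13 polyubiquitin inhibitor campaign.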
T3 sequence (Q07440 whole entry): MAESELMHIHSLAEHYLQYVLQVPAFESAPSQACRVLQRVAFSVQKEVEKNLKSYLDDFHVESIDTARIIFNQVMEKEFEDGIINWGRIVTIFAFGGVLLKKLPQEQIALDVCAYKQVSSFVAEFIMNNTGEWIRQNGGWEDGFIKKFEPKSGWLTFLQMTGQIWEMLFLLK

The target of assay [33] is T2, Small ubiquitin-related modifier 1. In words: SUMO1 protein interaction blockers, potency – biochemical, fluorescence polarization, uHTS hits, dose response (AID 624382). The conditions noted are these: read-out: IC50_Mean.
Assay [34] concerns the target T4, Rac GTPase-activating protein 1 (Homo sapiens, UniProt Q9H0H5).
T4 sequence (Q9H0H5 whole entry): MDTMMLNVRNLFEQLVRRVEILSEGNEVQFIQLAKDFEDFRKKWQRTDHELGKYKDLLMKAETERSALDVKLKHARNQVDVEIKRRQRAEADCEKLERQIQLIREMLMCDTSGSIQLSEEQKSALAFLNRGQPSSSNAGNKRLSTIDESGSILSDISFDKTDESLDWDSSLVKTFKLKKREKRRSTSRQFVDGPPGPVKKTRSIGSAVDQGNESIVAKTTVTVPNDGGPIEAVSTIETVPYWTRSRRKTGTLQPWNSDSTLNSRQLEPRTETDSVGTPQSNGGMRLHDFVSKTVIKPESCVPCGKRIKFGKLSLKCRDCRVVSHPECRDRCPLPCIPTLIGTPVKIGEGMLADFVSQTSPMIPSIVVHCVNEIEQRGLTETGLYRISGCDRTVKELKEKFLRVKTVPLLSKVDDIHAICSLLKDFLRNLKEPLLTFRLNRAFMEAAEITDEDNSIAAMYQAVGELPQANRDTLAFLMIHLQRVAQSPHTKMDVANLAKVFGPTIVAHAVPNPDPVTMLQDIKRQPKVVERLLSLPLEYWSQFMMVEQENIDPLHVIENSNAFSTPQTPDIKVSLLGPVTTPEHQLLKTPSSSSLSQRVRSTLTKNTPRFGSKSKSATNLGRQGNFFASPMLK
In words: blockers of MgcRacGAP-driven Rac1 GTP hydrolysis – biochemical, ADP Hunter fluorescence, primary and confirmatory, confirmation (AID 624330).

Assay [35] addresses T5, Ubiquitin-conjugating enzyme E2 N (Homo sapiens, UniProt P61088).
T5 sequence (P61088 whole entry): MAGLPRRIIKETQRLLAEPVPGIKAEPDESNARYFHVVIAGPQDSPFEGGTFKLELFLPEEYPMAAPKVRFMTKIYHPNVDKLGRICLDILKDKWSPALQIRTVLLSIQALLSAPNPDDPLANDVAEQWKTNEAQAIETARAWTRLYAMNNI

The target in assay [36] is T6, Apoptotic protease-activating factor 1 (Homo sapiens, UniProt O14727).
T6 sequence (O14727 whole entry): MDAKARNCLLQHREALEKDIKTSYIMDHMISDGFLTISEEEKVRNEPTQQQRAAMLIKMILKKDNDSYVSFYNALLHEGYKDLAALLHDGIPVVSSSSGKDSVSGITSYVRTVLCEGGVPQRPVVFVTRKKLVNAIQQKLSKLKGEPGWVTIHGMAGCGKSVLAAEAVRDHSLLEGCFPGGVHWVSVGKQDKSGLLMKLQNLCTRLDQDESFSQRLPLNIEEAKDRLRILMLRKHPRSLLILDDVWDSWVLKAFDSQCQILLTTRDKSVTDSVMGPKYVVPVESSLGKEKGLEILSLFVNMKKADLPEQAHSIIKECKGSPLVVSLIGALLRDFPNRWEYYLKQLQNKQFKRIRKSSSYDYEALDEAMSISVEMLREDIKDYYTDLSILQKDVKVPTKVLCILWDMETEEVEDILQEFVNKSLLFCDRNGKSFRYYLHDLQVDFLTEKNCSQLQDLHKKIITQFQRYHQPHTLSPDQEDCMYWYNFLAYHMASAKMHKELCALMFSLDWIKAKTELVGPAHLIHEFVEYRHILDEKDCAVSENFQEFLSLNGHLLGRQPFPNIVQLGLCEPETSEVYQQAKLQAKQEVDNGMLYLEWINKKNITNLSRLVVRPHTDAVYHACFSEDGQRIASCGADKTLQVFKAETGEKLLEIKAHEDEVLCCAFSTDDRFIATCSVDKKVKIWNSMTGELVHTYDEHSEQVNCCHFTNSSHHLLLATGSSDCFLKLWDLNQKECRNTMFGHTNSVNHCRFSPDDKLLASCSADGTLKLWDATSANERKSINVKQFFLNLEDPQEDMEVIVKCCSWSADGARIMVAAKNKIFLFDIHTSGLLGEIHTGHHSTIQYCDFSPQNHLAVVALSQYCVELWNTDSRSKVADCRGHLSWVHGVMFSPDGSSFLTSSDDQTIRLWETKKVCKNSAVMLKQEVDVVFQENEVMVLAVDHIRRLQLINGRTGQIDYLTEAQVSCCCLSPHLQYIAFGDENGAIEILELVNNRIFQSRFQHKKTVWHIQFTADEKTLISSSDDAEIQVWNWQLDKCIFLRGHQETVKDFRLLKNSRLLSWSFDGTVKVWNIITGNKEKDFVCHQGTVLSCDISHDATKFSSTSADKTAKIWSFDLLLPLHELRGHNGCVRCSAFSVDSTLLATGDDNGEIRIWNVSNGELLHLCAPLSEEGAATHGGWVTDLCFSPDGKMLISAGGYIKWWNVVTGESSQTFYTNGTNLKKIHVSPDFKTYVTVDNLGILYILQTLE
In words: SAR analysis of small molecule inhibitors of Apaf-1 in a Fluorescent assay. The conditions noted are these: read-out: IC50_Mean.

The target of assay [37] is 26S proteasome non-ATPase regulatory subunit 14 (Homo sapiens, UniProt O00487). In words: inhibition of proteasome subunit RPN11 – biochemical, fluorescence polarization, uHTS hits, confirmation (AID 602368).
26S proteasome non-ATPase regulatory subunit 14, sequence (O00487 whole entry): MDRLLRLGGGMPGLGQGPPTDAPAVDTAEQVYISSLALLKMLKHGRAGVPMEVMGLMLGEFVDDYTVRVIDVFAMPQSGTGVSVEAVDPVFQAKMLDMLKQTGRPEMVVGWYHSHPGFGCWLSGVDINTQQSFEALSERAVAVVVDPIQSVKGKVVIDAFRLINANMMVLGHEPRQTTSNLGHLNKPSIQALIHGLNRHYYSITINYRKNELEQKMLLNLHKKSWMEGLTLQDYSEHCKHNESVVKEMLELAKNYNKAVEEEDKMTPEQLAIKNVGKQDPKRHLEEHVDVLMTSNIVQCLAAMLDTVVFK
Assay [38] deals with T6, Apoptotic protease-activating factor 1.
In assay [39] the target is T5, Ubiquitin-conjugating enzyme E2 N. This is another data set of the same source.
In assay [40] the target is 72 kDa type IV collagenase (Homo sapiens, UniProt P08253). In words: Dose Response validation of uHTS RPN11 inhibitor hits using a MMP-2 Fluorescence assay.
72 kDa type IV collagenase, sequence (P08253 whole entry): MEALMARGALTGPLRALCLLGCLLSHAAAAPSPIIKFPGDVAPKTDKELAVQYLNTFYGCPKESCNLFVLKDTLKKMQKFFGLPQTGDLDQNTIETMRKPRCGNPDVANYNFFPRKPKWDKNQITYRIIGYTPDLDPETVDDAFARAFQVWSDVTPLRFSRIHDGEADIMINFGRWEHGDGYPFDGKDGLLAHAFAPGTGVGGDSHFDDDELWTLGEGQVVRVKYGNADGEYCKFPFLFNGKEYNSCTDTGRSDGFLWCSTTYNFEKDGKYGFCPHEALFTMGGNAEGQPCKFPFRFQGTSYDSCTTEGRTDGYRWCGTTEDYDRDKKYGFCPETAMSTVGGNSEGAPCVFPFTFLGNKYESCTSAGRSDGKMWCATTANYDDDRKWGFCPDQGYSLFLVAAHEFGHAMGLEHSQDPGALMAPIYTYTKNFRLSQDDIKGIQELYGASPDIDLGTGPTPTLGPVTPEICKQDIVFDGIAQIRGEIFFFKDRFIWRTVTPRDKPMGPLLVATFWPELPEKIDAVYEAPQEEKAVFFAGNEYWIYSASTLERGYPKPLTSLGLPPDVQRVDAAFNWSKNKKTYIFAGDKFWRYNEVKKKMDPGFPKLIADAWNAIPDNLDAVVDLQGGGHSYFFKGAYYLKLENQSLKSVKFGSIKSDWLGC

T2 sequence (P63165 whole entry): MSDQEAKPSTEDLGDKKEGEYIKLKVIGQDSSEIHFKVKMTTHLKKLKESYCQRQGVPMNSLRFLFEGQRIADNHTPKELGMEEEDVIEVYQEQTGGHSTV
T1 sequence (P0DPI1 2-448 limits assumed): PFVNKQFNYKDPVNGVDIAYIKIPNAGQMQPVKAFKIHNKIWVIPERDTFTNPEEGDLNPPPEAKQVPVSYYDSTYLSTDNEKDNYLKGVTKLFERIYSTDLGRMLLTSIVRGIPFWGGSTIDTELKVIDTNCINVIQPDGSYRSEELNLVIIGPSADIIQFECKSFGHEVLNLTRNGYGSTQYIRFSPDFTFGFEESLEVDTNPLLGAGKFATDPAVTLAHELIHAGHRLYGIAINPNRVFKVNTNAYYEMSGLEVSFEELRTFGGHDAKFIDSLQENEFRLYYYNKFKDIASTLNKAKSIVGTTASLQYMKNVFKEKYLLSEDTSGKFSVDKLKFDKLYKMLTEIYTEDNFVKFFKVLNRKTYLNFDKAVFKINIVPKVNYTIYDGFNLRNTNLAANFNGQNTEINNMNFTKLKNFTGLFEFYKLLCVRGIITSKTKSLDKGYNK
Lethal factor, sequence (P15917 whole entry): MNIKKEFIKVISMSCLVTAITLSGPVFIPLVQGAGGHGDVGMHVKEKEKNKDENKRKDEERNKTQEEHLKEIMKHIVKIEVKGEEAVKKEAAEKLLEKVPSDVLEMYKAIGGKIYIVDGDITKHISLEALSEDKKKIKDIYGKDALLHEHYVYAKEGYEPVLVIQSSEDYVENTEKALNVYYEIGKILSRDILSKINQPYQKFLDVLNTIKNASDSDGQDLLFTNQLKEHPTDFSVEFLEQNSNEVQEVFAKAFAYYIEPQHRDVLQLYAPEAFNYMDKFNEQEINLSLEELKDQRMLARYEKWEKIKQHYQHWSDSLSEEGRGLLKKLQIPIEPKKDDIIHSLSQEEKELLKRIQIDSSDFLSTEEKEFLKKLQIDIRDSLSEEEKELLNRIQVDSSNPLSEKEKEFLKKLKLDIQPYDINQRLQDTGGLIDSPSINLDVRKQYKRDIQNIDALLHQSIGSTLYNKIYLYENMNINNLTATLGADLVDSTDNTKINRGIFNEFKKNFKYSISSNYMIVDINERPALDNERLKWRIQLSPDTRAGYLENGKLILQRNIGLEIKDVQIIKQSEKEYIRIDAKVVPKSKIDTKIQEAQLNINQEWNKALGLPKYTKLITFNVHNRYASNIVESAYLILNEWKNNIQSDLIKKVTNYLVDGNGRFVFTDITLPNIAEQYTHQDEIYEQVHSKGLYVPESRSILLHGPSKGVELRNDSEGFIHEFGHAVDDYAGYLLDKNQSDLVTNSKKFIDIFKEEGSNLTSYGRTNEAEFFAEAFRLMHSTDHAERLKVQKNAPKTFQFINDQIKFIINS

A word on the Ki: it is the dissociation constant of the complex between target and ligand, obtained from inhibition or displacement. On to `CC1=CN2CC(=O)NN=C2C=C1`, for which the Ki was 50.1 µM (active) in assay [1]; 20 µM (active) in assay [2]; 79.4 µM (active) at Focal adhesion kinase 1; 50.1 µM (active) in [3]; 50.1 µM (active) in assay [4]; 12.6 µM (active) in assay [5]. Also, the Ki in [6] was 79.4 µM (active); on LIM domain kinase 1 it was 12.6 µM (active); in [7], 79.4 µM (active); in [8] it was 31.6 µM (active); in assay [9] it was 3.16 µM (active); in [10] it was > 100 µM (inactive). The Ki was 100 µM (active) in [11]; 63.1 µM (active) in assay [12]; 79.4 µM (active) in assay [13]; 79.4 µM (active) at Aurora kinase B; 20 µM (active) in assay [14]; > 79.4 µM (inactive) in [15]. Also, the Ki in assay [16] is > 100 µM (inactive); in [17], 50.1 µM (active); in [18], 50.1 µM (active); in assay [19], 63.1 µM (active); in assay [20], 25.1 µM (active); in [21], 100 µM (active). In addition, the Ki was 12.6 µM (active) in assay [22]; 31.6 µM (active) at Aurora kinase A; 100 µM (active) in [23]; 31.6 µM (active) in assay [24]; 79.4 µM (active) in [25]; > 50.1 µM (inactive) in assay [26]. Further, in [27], the Ki was > 100 µM (inactive).
Consider `CCOCCSc1nc2c(c(-c3cccs3)c1C#N)CC/C2=C/c1cccs1`, for which the EC50 at Lethal factor was 16.7 µM (active); in [28] it was 8 µM (active); in assay [29], 6.4 µM (active); in [30], 17.8 µM (active).
Usually AC50 stands for the midpoint of the concentration-response curve, whichever way the signal moves. With `CCN(CC)CCOC(=O)c1ccc(N/C=C(/C#N)c2nc(-c3ccc4c(c3)OCO4)cs2)cc1`, in assay [31], the CC50 is > 40 µM (active). Further, the IC50 was 2.13 µM (active) in [32]; 56.1 µM (active) at Prothrombin; 1.72 µM (active) on Bcl-2-related protein A1; > 66.6 µM (inactive) in assay [33]; 120 µM (active) in assay [34]; 5.07 µM (active) in assay [35]. In addition, the IC50 in assay [36] was 6.43 µM (active); in assay [37], 31.4 µM (active); in assay [38] it was 20.7 µM (active); in assay [39], 6.35 µM (active); in assay [40] it was > 100 µM (inactive). Moreover, the AC50 in the assay on INS1 is 11 µM (active).
